# Measured values reported in ChEMBL document CHEMBL1909046, “DrugMatrix in vitro pharmacology data”.
# How the values were obtained:
# [1] = biological target: Platelet-activating factor receptor (Homo sapiens, UniProt P25105); assay: biochemical; format: tissue-based; conditions: platelet; also: in other assays of this panel Not Active means under 50% inhibition at 10 µM
# [2] = biological target: 5-hydroxytryptamine receptor 1B (Rattus norvegicus, UniProt P28564); format: cell membranes, Wistar, Cerebral cortex, Membrane; also: in other assays of this panel Not Active means under 50% inhibition at 10 µM
# [3] = biological target: cGMP-specific 3',5'-cyclic phosphodiesterase (Homo sapiens, UniProt O76074); assay: DRUGMATRIX: Phosphodiesterase PDE5 enzyme inhibition (substrate: [3H]cGMP + cGMP); format: tissue-based, Platelet; conditions: platelet; Not Active = under 50% inhibition at 10 µM
# [4] = biological target: T1, Alpha-1D adrenergic receptor (Homo sapiens, UniProt P25100); format: cell membranes, HEK293, Membrane; also: in other assays of this panel Not Active means under 50% inhibition at 10 µM
# T1 sequence (P25100 whole entry): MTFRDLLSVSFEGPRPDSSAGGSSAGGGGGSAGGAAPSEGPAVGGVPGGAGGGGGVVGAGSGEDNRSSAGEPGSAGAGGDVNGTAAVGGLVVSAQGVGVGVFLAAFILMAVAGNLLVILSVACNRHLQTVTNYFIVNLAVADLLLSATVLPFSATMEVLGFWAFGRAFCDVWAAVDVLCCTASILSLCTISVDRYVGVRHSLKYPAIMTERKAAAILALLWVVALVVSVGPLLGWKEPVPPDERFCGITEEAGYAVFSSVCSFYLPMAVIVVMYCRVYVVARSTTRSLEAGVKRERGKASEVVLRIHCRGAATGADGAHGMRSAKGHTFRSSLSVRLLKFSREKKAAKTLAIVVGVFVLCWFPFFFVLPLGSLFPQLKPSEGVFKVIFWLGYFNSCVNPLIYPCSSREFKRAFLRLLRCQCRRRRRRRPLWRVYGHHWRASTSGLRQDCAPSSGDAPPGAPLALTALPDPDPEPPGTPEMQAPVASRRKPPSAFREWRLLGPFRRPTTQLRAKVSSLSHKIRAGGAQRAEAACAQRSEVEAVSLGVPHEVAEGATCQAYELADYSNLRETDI
# [5] = biological target: Mitogen-activated protein kinase 1 (Homo sapiens, UniProt P28482); assay: DRUGMATRIX: Protein Serine/Threonine Kinase, ERK2 enzyme inhibition (substrate: Myelin Basic Protein); parameters: species or system Escherichia coli; conditions: Not Active = under 50% inhibition at 10 µM
# [6] = biological target: C-C chemokine receptor type 5 (Homo sapiens, UniProt P51681); format: cell membranes, Membrane; conditions: hek293; also: in other assays of this panel Not Active means under 50% inhibition at 10 µM
# Thromboxane-A synthase = biological target: T2, Thromboxane-A synthase (Homo sapiens, UniProt P24557); assay: biochemical; format: tissue-based, Platelet
# T2 sequence (P24557 whole entry): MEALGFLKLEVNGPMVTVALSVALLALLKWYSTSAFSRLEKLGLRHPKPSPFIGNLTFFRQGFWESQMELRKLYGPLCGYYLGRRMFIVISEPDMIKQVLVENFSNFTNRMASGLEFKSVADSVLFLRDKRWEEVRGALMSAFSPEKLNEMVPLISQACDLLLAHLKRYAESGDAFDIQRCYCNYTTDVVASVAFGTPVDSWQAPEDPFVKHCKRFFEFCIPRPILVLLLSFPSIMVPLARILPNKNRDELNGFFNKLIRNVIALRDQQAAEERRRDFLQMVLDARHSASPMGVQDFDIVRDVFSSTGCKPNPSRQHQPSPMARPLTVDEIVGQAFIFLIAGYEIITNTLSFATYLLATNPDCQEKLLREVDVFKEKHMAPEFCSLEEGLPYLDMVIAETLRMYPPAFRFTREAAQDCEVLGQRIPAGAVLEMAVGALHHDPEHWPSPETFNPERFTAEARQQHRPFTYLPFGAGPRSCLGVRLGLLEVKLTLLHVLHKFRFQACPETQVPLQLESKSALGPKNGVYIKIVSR
# [7] = DRUGMATRIX: Atrial Natriuretic Factor (ANF) radioligand binding (ligand: [125I] ANF (rat)); format: cell membranes, Cavia porcellus, Dunkin-Hartley, Adrenal gland, Membrane; conditions: Not Active = under 50% inhibition at 10 µM
# [8] = biological target: T3, Cysteinyl leukotriene receptor 1 (Homo sapiens, UniProt Q9Y271); format: cell membranes, CHO-K1, Membrane; conditions: cho-k1; also: in other assays of this panel Not Active means under 50% inhibition at 10 µM
# T3 sequence (Q9Y271 whole entry): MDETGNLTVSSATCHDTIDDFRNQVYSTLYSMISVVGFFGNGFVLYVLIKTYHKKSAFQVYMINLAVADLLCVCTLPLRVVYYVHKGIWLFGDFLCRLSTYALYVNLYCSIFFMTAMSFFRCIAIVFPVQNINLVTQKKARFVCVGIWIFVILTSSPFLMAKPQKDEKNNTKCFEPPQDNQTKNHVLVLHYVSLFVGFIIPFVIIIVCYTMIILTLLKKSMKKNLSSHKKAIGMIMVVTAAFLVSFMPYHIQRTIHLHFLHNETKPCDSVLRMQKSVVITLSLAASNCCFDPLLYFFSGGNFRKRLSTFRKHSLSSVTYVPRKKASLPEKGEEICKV
# [9] = biological target: T4, Neuropeptide Y receptor type 2 (Homo sapiens, UniProt P49146); format: cell membranes, Membrane; conditions: kan-ts; also: in other assays of this panel Not Active means under 50% inhibition at 10 µM
# T4 sequence (P49146 whole entry): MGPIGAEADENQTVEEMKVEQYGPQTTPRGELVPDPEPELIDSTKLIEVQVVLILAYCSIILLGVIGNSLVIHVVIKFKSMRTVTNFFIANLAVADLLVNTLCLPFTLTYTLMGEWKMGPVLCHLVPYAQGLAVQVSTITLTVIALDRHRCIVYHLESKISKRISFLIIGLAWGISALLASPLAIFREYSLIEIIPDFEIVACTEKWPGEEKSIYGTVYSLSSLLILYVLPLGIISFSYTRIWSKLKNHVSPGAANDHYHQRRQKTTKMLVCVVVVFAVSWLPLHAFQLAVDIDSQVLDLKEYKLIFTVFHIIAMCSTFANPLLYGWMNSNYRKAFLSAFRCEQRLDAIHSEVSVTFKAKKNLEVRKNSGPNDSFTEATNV
# [10] = biological target: Vascular endothelial growth factor receptor 1 (Homo sapiens, UniProt P17948); format: cell-based; conditions: huvec; also: in other assays of this panel Not Active means under 50% inhibition at 10 µM
# Vascular endothelial growth factor receptor 1, sequence (P17948 whole entry): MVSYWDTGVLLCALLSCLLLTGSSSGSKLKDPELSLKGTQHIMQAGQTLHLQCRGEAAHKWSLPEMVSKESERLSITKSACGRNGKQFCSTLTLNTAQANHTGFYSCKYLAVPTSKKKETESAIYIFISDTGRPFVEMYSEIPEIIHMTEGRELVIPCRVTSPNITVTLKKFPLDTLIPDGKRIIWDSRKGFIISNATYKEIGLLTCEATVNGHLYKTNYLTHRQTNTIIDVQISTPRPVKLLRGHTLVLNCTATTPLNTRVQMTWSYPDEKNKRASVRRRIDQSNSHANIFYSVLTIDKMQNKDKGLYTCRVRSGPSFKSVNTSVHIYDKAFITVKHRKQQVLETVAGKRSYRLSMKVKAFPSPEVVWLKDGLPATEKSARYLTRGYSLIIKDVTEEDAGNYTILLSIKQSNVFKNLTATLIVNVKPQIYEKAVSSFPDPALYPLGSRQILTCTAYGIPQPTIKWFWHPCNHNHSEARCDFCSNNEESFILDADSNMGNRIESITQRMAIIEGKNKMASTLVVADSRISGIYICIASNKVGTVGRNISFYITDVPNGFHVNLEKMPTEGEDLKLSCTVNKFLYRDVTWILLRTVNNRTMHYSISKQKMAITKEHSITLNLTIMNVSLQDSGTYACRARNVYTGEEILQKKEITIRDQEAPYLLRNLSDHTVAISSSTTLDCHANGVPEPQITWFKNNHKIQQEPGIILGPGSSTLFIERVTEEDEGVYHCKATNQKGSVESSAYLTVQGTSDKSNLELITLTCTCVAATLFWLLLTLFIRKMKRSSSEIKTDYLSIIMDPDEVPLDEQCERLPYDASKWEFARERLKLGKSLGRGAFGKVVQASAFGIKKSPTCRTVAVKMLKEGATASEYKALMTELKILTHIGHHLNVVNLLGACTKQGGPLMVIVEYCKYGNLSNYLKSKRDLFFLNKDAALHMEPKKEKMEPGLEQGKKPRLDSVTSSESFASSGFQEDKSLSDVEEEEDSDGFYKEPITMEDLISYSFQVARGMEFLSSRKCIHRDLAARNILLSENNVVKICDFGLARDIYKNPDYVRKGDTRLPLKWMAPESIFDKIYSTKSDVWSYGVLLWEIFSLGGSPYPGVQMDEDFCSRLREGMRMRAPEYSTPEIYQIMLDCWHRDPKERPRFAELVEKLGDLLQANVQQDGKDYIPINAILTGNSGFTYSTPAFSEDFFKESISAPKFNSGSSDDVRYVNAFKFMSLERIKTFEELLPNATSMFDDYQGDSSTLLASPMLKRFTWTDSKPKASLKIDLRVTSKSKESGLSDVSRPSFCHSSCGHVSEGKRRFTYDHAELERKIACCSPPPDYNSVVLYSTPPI
# Mitogen-activated protein kinase 1, sequence (P28482 whole entry): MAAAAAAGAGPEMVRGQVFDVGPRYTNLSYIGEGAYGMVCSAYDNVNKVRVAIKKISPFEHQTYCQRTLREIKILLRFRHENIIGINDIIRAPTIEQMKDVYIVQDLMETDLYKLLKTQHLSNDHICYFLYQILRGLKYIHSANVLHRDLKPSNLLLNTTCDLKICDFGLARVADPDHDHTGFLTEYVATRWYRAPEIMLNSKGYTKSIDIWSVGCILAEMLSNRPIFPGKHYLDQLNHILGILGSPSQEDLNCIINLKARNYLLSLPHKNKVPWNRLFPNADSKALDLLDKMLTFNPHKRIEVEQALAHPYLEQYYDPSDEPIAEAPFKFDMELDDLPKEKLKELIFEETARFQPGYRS
# Platelet-activating factor receptor, sequence (P25105 whole entry): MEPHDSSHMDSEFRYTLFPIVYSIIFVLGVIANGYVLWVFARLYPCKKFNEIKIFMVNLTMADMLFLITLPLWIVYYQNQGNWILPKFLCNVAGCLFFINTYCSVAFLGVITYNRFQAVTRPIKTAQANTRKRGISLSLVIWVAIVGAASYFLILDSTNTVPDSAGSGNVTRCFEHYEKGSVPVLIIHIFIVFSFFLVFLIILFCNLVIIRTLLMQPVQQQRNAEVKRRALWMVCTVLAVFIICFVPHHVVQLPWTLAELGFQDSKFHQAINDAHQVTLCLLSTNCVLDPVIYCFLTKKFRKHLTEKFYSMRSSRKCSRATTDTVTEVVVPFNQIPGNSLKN
# 5-hydroxytryptamine receptor 1B, sequence (P28564 whole entry): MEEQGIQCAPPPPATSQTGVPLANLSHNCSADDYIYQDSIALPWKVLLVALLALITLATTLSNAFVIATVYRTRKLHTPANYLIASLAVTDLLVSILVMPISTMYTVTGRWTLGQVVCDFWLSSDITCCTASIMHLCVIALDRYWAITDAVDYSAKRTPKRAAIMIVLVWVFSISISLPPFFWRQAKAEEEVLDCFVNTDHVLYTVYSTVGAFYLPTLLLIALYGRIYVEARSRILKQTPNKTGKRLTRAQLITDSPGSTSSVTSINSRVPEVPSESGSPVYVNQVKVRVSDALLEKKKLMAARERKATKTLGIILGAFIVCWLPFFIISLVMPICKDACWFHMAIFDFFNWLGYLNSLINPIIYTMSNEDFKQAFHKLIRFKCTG
# C-C chemokine receptor type 5, sequence (P51681 whole entry): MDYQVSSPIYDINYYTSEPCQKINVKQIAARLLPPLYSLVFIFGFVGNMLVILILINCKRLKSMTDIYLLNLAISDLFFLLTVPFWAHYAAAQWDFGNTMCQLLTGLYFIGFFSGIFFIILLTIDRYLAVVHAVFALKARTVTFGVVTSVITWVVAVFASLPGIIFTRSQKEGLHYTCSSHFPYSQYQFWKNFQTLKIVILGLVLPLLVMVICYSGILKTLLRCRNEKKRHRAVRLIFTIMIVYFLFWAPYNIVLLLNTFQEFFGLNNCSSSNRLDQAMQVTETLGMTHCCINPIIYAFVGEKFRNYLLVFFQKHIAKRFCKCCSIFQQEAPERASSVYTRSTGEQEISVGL
Molecule,IC50 [1],IC50 [2],IC50 [3],IC50 [5],IC50 [6],IC50 (Thromboxane-A synthase; platelet),IC50 [7],Ki [7],IC50 [8],IC50 [9],IC50 [10],IC50 ([4]; hek293),further results
CC(CCc1ccccc1)NCC(O)c1ccc(O)c(C(N)=O)c1 (stereo not drawn) [LABETALOL],Not Active,Not Active,Not Active,Not Active,Not Active,Not Active,Not Active,Not Active,Not Active,Not Active,Not Active,,IC50 ([4]; read-out: IC50): 521 nM; Ki ([4]; read-out: Ki): 256 nM
CC(C)(C)NC(=O)[C@@H]1CN(Cc2cccnc2)CCN1C[C@@H](O)C[C@@H](Cc1ccccc1)C(=O)N[C@H]1c2ccccc2C[C@H]1O.O,Not Active,Not Active,Not Active,Not Active,Not Active,,Not Active,Not Active,Not Active,Not Active,Not Active,Not Active,IC50 (Thromboxane-A synthase; read-out: IC50): 1850 nM
COc1c(C)c2c(c(O)c1C/C=C(\C)CCC(=O)OCCN1CCOCC1)C(=O)OC2 [MYCOPHENOLATE MOFETIL],Not Active,Not Active,Not Active,Not Active,Not Active,Not Active,Not Active,Not Active,Not Active,Not Active,Not Active,Not Active,
CN[C@H](CC(C)C)C(=O)N[C@H]1C(=O)N[C@@H](CC(N)=O)C(=O)N[C@H]2C(=O)N[C@H]3C(=O)N[C@H](C(=O)N[C@H](C(=O)O)c4cc(O)cc(O)c4-c4cc3ccc4O)[C@H](O)c3ccc(c(Cl)c3)Oc3cc2cc(c3O[C@@H]2O[C@H](CO)[C@@H](O)[C@H](O)[C@H]2O[C@H]2C[C@](C)(N)[C@H](O)[C@H](C)O2)Oc2ccc(cc2Cl)[C@H]1O [VANCOMYCIN],Not Active,Not Active,Not Active,Not Active,Not Active,Not Active,Not Active,Not Active,Not Active,Not Active,Not Active,Not Active,
CC(C)[C@H](N)C(=O)OCCOCn1cnc2c(=O)nc(N)[nH]c21 [VALACYCLOVIR],Not Active,Not Active,Not Active,Not Active,Not Active,Not Active,Not Active,Not Active,Not Active,Not Active,Not Active,Not Active,
COS(C)(=O)=O [METHANESULFONIC ACID METHYL ESTER],Not Active,Not Active,Not Active,Not Active,Not Active,Not Active,Not Active,Not Active,Not Active,Not Active,Not Active,Not Active,
CC1CN(c2cc3c(cc2F)c(=O)c(C(=O)O)cn3-c2ccc(F)cc2F)CCN1 (stereo not drawn) [TEMAFLOXACIN],Not Active,Not Active,Not Active,Not Active,Not Active,Not Active,Not Active,Not Active,Not Active,Not Active,Not Active,Not Active,
O=C1c2c(O)ccc(O)c2C(=O)c2c(NCCNCCO)ccc(NCCNCCO)c21 [MITOXANTRONE],Not Active,Not Active,Not Active,Not Active,Not Active,Not Active,Not Active,Not Active,Not Active,Not Active,Not Active,Not Active,
CN(C)[C@@H]1C(O)=C(C(N)=O)C(=O)[C@@]2(O)C(O)=C3C(=O)c4c(O)cccc4[C@@](C)(O)[C@H]3C[C@@H]12 [TETRACYCLINE],Not Active,Not Active,Not Active,Not Active,Not Active,Not Active,Not Active,Not Active,Not Active,Not Active,Not Active,Not Active,
COc1cc(C(=O)NC2CCCNC2)cc(OC)c1OC (stereo not drawn) [TROXIPIDE],Not Active,Not Active,Not Active,Not Active,Not Active,Not Active,Not Active,Not Active,Not Active,Not Active,Not Active,Not Active,
IVERMECTIN,Not Active,Not Active,Not Active,Not Active,Not Active,Not Active,Not Active,Not Active,Not Active,Not Active,Not Active,Not Active,Ki [1]: Not Active; Ki [2]: Not Active; Ki [3]: Not Active; Ki ([4]; hek293): Not Active; Ki [5]: Not Active; Ki [6]: Not Active; Ki (Thromboxane-A synthase; platelet): Not Active; Ki [8]: Not Active; Ki [9]: Not Active; Ki [10]: Not Active
